Measured values taken from patent US9765105B2, “Macrolide compound” (Pulike Biological Engineering, Inc., priority 2013, dated 2017).

Experiments:
Test in all cases: in vitro susceptibility, MIC by mini broth dilution
Type in all cases: cell-based
[1] = test system: Staphylococcus aureus CVCC26003; conditions: strain CVCC26003
Summary of the method: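 S. aureus CVCC26003 was revived and subcultured twice, 20 h each at 35° C, on solid medium, then diluted 1:200 in CAMHB liquid medium. Compounds received an 11-step two-fold DMSO dilution in parallel duplicate rows. MIC was read by mini broth dilution per NCCLS guidance.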

[2] = test system: Actinobacillus pleuropneumoniae CVCC262; conditions: strain CVCC262
Summary of the method: (§1)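 Read-out is the minimum inhibitory concentration, measured by mini broth dilution following the US NCCLS approved standard, with 11 two-fold compound dilutions in DMSO and a 1:200-diluted inoculum.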

Haemophilus parasuis = test system: Haemophilus parasuis
Summary of the method: as §1

[3] = test system: Pasteurella multocida CVCC399; conditions: strain CVCC399
Summary of the method: as §1

[4] = test system: Streptococcus equines CVCC556; conditions: strain CVCC556
Summary of the method: as §1

MIC values, Staphylococcus aureus CVCC26003 [1]	MIC values, Actinobacillus pleuropneumoniae CVCC262 [2]	MIC values, Haemophilus parasuis (Haemophilus parasuis)	MIC values, Pasteurella multocida CVCC399 [3]	MIC values, Streptococcus equines CVCC556 [4]	Compound
1 ug/mi	0.5 ug/mi	0.5 ug/mi	4 ug/mi	0.5 ug/mi	CCCCN(C)C[C@]1(O)[C@H](C)O[C@@H](O[C@H]2[C@H](C)[C@@H](O[C@@H]3O[C@H](C)C[C@H](N(C)C)[C@H]3O)[C@](C)(O)C[C@@H](C)N(CCC)C[C@H](C)[C@@H](O)[C@](C)(O)[C@@H](CC)OC(=O)[C@@H]2C)C[C@@]1(C)OC [syzx-198]
≦0.25 ug/mi	2 ug/mi	≦0.25 ug/mi	0.25 ug/mi	≦0.25 ug/mi	CC[C@H]1OC(=O)[C@H](C)[C@@H](O[C@H]2C[C@@](C)(OC)[C@](O)(Cn3cccc3)[C@H](C)O2)[C@H](C)[C@@H](O[C@@H]2O[C@H](C)C[C@H](N(C)C)[C@H]2O)[C@](C)(O)C[C@@H](C)NC[C@H](C)[C@@H](O)[C@]1(C)O [syzx-7, (2R,3S,4R,5S,8R,10R,11R,12S,13S,14R)-13-[(2,6-dideoxy-3-C-methyl-3-O-methyl-4-C-[(pyrryl)methyl]-α-L-ribopyranosyl)oxy]-2-ethyl-3,4,10-trihydroxy-3,5,8,10,12,14-hexamethyl-11-[[3,4,6-trideoxy-3-(dimethylamino)-β-D-xylo-hexopyranosy]oxy]-1-oxa-7-azacyclopentadecan-15-one]
≦0.25 ug/mi	2 ug/mi	≦0.25 ug/mi	0.25 ug/mi	≦0.25 ug/mi	CC[C@H]1OC(=O)[C@H](C)[C@@H](O[C@H]2C[C@@](C)(OC)[C@](O)(CNc3ccc(F)cn3)[C@H](C)O2)[C@H](C)[C@@H](O[C@@H]2O[C@H](C)C[C@H](N(C)C)[C@H]2O)[C@](C)(O)C[C@@H](C)NC[C@H](C)[C@@H](O)[C@]1(C)O [syzx-86, (2R,3S,4R,5S,8R,10R,11R,12S,13S,14R)-13-[(2,6-dideoxy-3-C-methyl-3-O-methyl-4-C-[(5-fluoropyridin-2-yl-amino)-methyl]-α-L-ribopyranosyl)oxy]-2-ethyl-3,4,10-trihydroxy-3,5,8,10,12,14-hexamethyl-11-[[3,4,6-trideoxy-3-(dimethylamino)-β-D-xylo-hexopyranosy]oxy]-1-oxa-7-azacyclopentadecan-15-one]
1 ug/mi	1 ug/mi	2 ug/mi	0.5 ug/mi	2 ug/mi	CC[C@H]1OC(=O)[C@H](C)[C@@H](O[C@H]2C[C@@](C)(OC)[C@](O)(CNC(C)C(C)(C)C)[C@H](C)O2)[C@H](C)[C@@H](O[C@@H]2O[C@H](C)C[C@H](N(C)C)[C@H]2O)[C@](C)(O)C[C@@H](C)NC[C@H](C)[C@@H](O)[C@]1(C)O (stereo partly drawn) [syzx-100, (2R,3S,4R,5S,8R,10R,11R,12S,13S,14R)-13-[(2,6-dideoxy-3-C-methyl-3-O-methyl-4-C-[(1,2,2-trimethyl-propylamino)-methyl]-α-L-ribopyranosyl)oxy]-2-ethyl-3,4,10-trihydroxy-3,5,8,10,12,14-hexamethyl-11-[[3,4,6-trideoxy-3-(dimethylamino)-β-D-xylo-hexopyranosy]oxy]-1-oxa-7-azacyclopentadecan-15-one]
0.25 ug/mi	0.25 ug/mi	0.25 ug/mi	0.5 ug/mi	0.25 ug/mi	CCCN1C[C@H](C)[C@@H](O)[C@](C)(O)[C@@H](CC)OC(=O)[C@H](C)[C@@H](O[C@H]2C[C@@](C)(OC)[C@](O)(CNCC(C)C)[C@H](C)O2)[C@H](C)[C@@H](O[C@@H]2O[C@H](C)C[C@H](N(C)C)[C@H]2O)[C@](C)(O)C[C@H]1C [syzx-112]
1 ug/mi	1 ug/mi	0.5 ug/mi	1 ug/mi	0.25 ug/mi	CCCN1C[C@H](C)[C@@H](O)[C@](C)(O)[C@@H](CC)OC(=O)[C@H](C)[C@@H](O[C@H]2C[C@@](C)(OC)[C@](O)(CNCCCOCC)[C@H](C)O2)[C@H](C)[C@@H](O[C@@H]2O[C@H](C)C[C@H](N(C)C)[C@H]2O)[C@](C)(O)C[C@H]1C [syzx-122]
1 ug/mi	8 ug/mi	≦0.25 ug/mi	0.5 ug/mi	0.5 ug/mi	CCOCCCNCC1(O)C(C)OC(OC2C(C)C(=O)OC(CC)C(C)(O)C(O)C(C)CNC(C)CC(C)(O)C(OC3OC(C)CC(N(C)C)C3O)C2C)CC1(C)OC [syzx-22, (2R,3S,4R,5S,8R,10R,11R,12S,13S,14R)-13-[(2,6-dideoxy-3-C-methyl-3-O-methyl-4-C-[(3-ethoxypropyl)amino)methyl]-α-L-ribopyranosyl)oxy]-2-ethyl-3,4,10-trihydroxy-3,5,8,10,12,14-hexamethyl-11-[[3,4,6-trideoxy-3-(dimethylamino)-β-D-xylo-hexopyranosy]oxy]-1-oxa-7-azacyclopentadecan-15-one]
0.25 ug/mi	0.25 ug/mi	0.25 ug/mi	1 ug/mi	0.25 ug/mi	CCCC(C)NC[C@]1(O)[C@H](C)O[C@@H](O[C@H]2[C@H](C)[C@@H](O[C@@H]3O[C@H](C)C[C@H](N(C)C)[C@H]3O)[C@](C)(O)C[C@@H](C)N(CCC)C[C@H](C)[C@@H](O)[C@](C)(O)[C@@H](CC)OC(=O)[C@@H]2C)C[C@@]1(C)OC (some centres unmarked) [syzx-163]
0.25 ug/mi	0.25 ug/mi	0.25 ug/mi	0.5 ug/mi	0.25 ug/mi	CCCN1C[C@H](C)[C@@H](O)[C@](C)(O)[C@@H](CC)OC(=O)[C@H](C)[C@@H](O[C@H]2C[C@@](C)(OC)[C@](O)(CNCc3ccc(F)cc3F)[C@H](C)O2)[C@H](C)[C@@H](O[C@@H]2O[C@H](C)C[C@H](N(C)C)[C@H]2O)[C@](C)(O)C[C@H]1C [syzx-131]
0.25 ug/mi	0.25 ug/mi	0.25 ug/mi	0.5 ug/mi	0.25 ug/mi	CCCN1C[C@H](C)[C@@H](O)[C@](C)(O)[C@@H](CC)OC(=O)[C@H](C)[C@@H](O[C@H]2C[C@@](C)(OC)[C@](O)(CNC(CC)CO)[C@H](C)O2)[C@H](C)[C@@H](O[C@@H]2O[C@H](C)C[C@H](N(C)C)[C@H]2O)[C@](C)(O)C[C@H]1C (some centres unmarked) [syzx-151]
4 ug/mi	128 ug/mi	4 ug/mi	8 ug/mi	2 ug/mi	CC[C@H]1OC(=O)[C@H](C)[C@@H](O[C@H]2C[C@@](C)(OC)[C@](O)(CNc3ccc4ncccc4c3)[C@H](C)O2)[C@H](C)[C@@H](O[C@@H]2O[C@H](C)C[C@H](N(C)C)[C@H]2O)[C@](C)(O)C[C@@H](C)NC[C@H](C)[C@@H](O)[C@]1(C)O [syzx-99, (2R,3S,4R,5S,8R,10R,11R,12S,13S,14R)-13-[(2,6-dideoxy-3-C-methyl-3-O-methyl-4-C-[(quinolin-6-yl-amino)-methyl]-α-L-ribopyranosyl)oxy]-2-ethyl-3,4,10-trihydroxy-3,5,8,10,12,14-hexamethyl-11-[[3,4,6-trideoxy-3-(dimethylamino)-β-D-xylo-hexopyranosy]oxy]-1-oxo-7-azacyclopentadecan-15-one]

Compound	MIC values, Staphylococcus aureus CVCC26003 [1]	MIC values, Actinobacillus pleuropneumoniae CVCC262 [2]	MIC values, Haemophilus parasuis (Haemophilus parasuis)	MIC values, Pasteurella multocida CVCC399 [3]	MIC values, Streptococcus equines CVCC556 [4]
CCCN1CC(C)C(O)C(C)(O)C(CC)OC(=O)C(C)C(OC2CC(C)(OC)C(O)(CNCCOS(=O)(=O)O)C(C)O2)C(C)C(OC2OC(C)CC(N(C)C)C2O)C(C)(O)CC1C (centres unmarked) [syzx-153]	0.25 ug/mi	0.25 ug/mi	0.25 ug/mi	1 ug/mi	0.25 ug/mi
CC[C@H]1OC(=O)[C@H](C)[C@H](O[C@H]2C[C@@](C)(OC)[C@](O)(CNCCc3ccncc3)[C@H](C)O2)[C@H](C)[C@@H](O[C@@H]2O[C@H](C)C[C@H](N(C)C)[C@H]2O)[C@](C)(O)C[C@@H](C)NC[C@H](C)[C@@H](O)[C@]1(C)O [syzx-64]	≦0.25 ug/mi	0.5 ug/mi	≦0.25 ug/mi	0.25 ug/mi	0.25 ug/mi
